Where only a bound is given, the exact number is not on record here.

This assay deals with T1, BRD9 (Homo sapiens, UniProt Q9H8M2).
T1 sequence (Q9H8M2 1-597): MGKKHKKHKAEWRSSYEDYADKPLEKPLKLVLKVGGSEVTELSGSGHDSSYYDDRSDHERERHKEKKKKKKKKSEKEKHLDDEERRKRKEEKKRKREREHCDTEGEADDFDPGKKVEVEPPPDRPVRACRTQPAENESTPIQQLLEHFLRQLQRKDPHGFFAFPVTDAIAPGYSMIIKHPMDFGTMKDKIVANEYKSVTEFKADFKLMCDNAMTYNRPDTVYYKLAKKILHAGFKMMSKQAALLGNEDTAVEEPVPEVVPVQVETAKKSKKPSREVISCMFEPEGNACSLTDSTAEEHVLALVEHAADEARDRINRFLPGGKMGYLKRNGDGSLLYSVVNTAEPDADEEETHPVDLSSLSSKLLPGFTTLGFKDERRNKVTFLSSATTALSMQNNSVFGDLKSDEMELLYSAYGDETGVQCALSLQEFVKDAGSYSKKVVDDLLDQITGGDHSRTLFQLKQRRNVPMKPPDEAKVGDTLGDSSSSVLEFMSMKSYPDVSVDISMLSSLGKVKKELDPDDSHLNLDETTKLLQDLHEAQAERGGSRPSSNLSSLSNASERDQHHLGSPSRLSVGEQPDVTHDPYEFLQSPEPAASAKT
Put plainly: HiBit Lytic Assay (HiBit DC50, BRD9 degraders of Table 1). In kind it is cell-based. The note with it: 11-point half log dose response, NanoLuc signal. The protocol:
Example 3. HiBit Lytic Assay
• Compound is made at 10 mM, half log dilution, 11 points. • MDR plates can also be ordered from Frontier with same format. • 1. Barcode a 384LDV plate (384-well Low Dead Volume Microplate, Labcyte LP-0200) (Echo compatible) on the left side. • 2. Transfer 13.6 μL of 10 mM compound into column 1 of LDV plate (Labcyte). • 3. Fill column 2-11 and column 23 of MDR plate with 9.30 μL of DMSO. • 4. Serial dilute 3.16 fold from column 1 to 2 by transferring 4.30 μL from column 1 to column 2, and so on to column 11. *Change tip in every dilution to prevent compound carryover effect! • 5. Seal the plate with Plate Sealer, then store the MDR plate at room temperature for short term storage and in −20° C. for long term storage.
• Cells are treated with 30 nL of each compound at 10 mM, half log dilution, 11 points with final concentration of 1000 nM or 833 nM, half log dilution, 11 points, in duplicates. Final DMSO concentration is 0.1%. • 1. Barcode the plates made on the left side and label the plates with silver marker. • 2. Dispense with the following scheme: • a. 30 nL of compound into corresponding wells in cell plates via Echo550 with “MDR32_HiBiT16_30 nL”. Top concentration will be 1000 nM. • 3. Seal the plate with Plate Sealer.
• Cells are dispensed at density specified in Cell Line Table in 384-well microplate. • 1. Culture cells to between 50-80% of confluence in sterile culture flasks of appropriate size. • 2. For Adherent Cell Lines: • a. Aspirate off growth media in culture flask, and wash off the Phenol Red media with 5 mL of 1×PBS. • b. Add 5 mL of Trypsin to the cells, incubate at 37° C. for 5 minutes. • c. Add 5 mL of growth media to the trypsinzed cells, and resuspend. • 3. Remove 10 μL of cells, and resuspend the cells with 10 μL of Trypan Blue. Insert the solution to counting chamber slide, and count the cells via cell counter. • 4. Adjust the cell concentration to specified plating density, and strain the cells with cell strainer. • 5. Dispense the cells via E1-ClipTip™ Electronic Multichannel Pipettes or Multidrop™ Combi Reagent Dispenser with Standard tube dispensing cassette: • a. Prime the cassette with 10-20 mL of ddH2O. • b. Prime the cassette with 10-20 mL of cells. • c. Dispense the cells at low speed for 30 μL/well in Corning® 384 Well Low Flange Black Flat Bottom Polystyrene TC-Treated Microplate. • d. Wash the cassette with 10-20 mL of ddH2O, follow by 10-20 mL of 70% EtOH, then again with 10-20 mL of ddH2O. • 6. Incubate the plates at 37° C.×compound treatment time.
• 1. If not already, bring Nano-Glo® HiBiT Lytic Buffer to room temperature. • 2. Determine the amount of reagent needed. A volume of reagent equal to the volume of media in the well should be added (i.e. 30 μL of cells will need 30 μL of HiBiT Lytic reagent). • 3. Into a given volume of buffer, dilute the substrate 50-fold and the LgBiT protein 100-fold. For example, to make 10 ml of reagent, add the following: • 10 ml Nano-Glo® HiBiT Lytic Buffer • 200 μl Nano-Glo® HiBiT Lytic Substrate • 100 μl LgBiT Protein • The reagent should be reconstituted immediately before use. However, once reconstituted, it should take about 4 hours for the activity to decrease 10%. • 4. Cool down the cell plate to room temperature for 10-15 minutes without lid. • 5. Dispense the HiBiT Lytic Reagent via E1-ClipTip™ Electronic Multichannel Pipettes or Multidrop™ Combi Reagent Dispenser with Standard tube dispensing cassette: • a. Prime the cassette with 10-20 mL of ddH2O. • b. Prime the cassette with 10-20 mL of CTG 2.0. • c. Dispense the HiBiT Lytic Reagent at medium speed for 30 μL/well in cell plate to column 1-23 (column 24 will be used as plate background). • d. Wash the cassette with 10-20 mL of ddH2O, follow by 10-20 mL of 70% EtOH, then again with 10-20 mL of ddH2O. • 6. Incubate the cell plate at room temperature for 10 minutes without lid. • 7. […]
Background: With HiBiT, luminescence reflects the tagged protein that the partner subunit can reach.
For orientation: DC50 means the concentration at which degradation of the target reaches its halfway point. Low readings indicate a more potent degrader, high ones a less potent degrader. `COc1cc(-c2cn(C)c(=O)c3[nH]ncc23)cc(OC)c1CNCC(=O)NCCCCCCCCCc1ccc2c(c1)C(=O)N(C1CCC(=O)NC1=O)C2=O` (stereo not shown) [Compound 202, 2-[[2,6-dimethoxy-4-(6-methyl-7-oxo-1H-pyrazolo[3,4-c]pyridin-4-yl)phenyl]methylamino]-N-[9-[2-(2,6-dioxo-3-piperidyl)-1,3-dioxo-isoindolin-5-yl]nonyl]acetamide] displayed a 50% degradation concentration (DC50) of less than 100 nM.
For `COc1cc(-c2cn(C)c(=O)c3[nH]ncc23)cc(OC)c1CNCC(=O)NCCCCCCCCCc1cccc2c1C(=O)N(C1CCC(=O)NC1=O)C2=O` (stereo not shown) [Compound 204, 2-[[2,6-dimethoxy-4-(6-methyl-7-oxo-1H-pyrazolo[3,4-c]pyridin-4-yl)phenyl]methylamino]-N-[9-[2-(2,6-dioxo-3-piperidyl)-1,3-dioxo-isoindolin-4-yl]nonyl]acetamide] the value was less than 100 nM; for `COc1cc(-c2cn(C)c(=O)c3c2cnn3C)cc(OC)c1CNCC(=O)NCCCCCCCCCc1ccc2c(c1)C(=O)N(C1CCC(=O)NC1=O)C2=O` (stereo not shown) [Compound 206], less than 100 nM.
To `COc1cc(-c2cn(C)c(=O)c3[nH]ncc23)cc(OC)c1CNCC(=O)NCCCCCNC(=O)CCc1ccc2c(c1)C(=O)N(C1CCC(=O)NC1=O)C2=O` (stereo not shown) [Compound 207, N-[5-[[2-[[2,6-dimethoxy-4-(6-methyl-7-oxo-1H-pyrazolo[3,4-c]pyridin-4 yl)phenyl]methylamino]acetyl]amino]pentyl]-3-[2-(2,6-dioxo-3-piperidyl)-1,3-dioxo-isoindolin-5-yl]propanamide] belongs less than 100 nM; to `COc1cc(-c2cn(C)c(=O)c3c2cnn3C)cc(OC)c1CNCC(=O)NCCCCCCCCCc1cccc2c1C(=O)N(C1CCC(=O)NC1=O)C2=O` (stereo not shown) [Compound 208, 2-[[4-(1,6-dimethyl-7-oxo-pyrazolo[3,4-c]pyridin-4-yl)-2,6-dimethoxy-phenyl]methylamino]-N-[9-[2-(2,6-dioxo-3-piperidyl)-1,3-dioxo-isoindolin-4-yl]nonyl]acetamide], less than 100 nM.
As to `COc1cc(-c2cn(C)c(=O)c3c2ccn3C)cc(OC)c1CN(C)CC(=O)NCCCCCCCCNc1cccc2c1C(=O)N(C1CCC(=O)NC1=O)C2=O` (stereo not shown) [Compound 209, 2-[[4-(1,6-dimethyl-7-oxo-pyrrolo[2,3-c]pyridin-4-yl)-2,6-dimethoxy-phenyl]methyl-methyl-amino]-N-[8-[[2-(2,6-dioxo-3-piperidyl)-1,3-dioxo-isoindolin-4-yl]amino]octyl]acetamide], the DC50 was less than 100 nM.
For `COc1cc(-c2cn(C)c(=O)c3c2ccn3C)cc(OC)c1CN(C)CC(=O)NCCCCCCCCNC(=O)c1ccc(=O)n(C2CCC(=O)NC2=O)c1` (stereo not shown) [Compound 218, N-[8-[[2-[[4-(1,6-dimethyl-7-oxo-pyrrolo[2,3-c]pyridin-4-yl)-2,6-dimethoxy-phenyl]methyl-methyl-amino]acetyl]amino]octyl]-1-(2,6-dioxo-3-piperidyl)-6-oxo-pyridine-3-carboxamide] the value was less than 1000 nM; for `COc1cc(-c2cn(C)c(=O)c3c2ccn3C)cc(OC)c1CN(C)CC(=O)NCCCCCCCCNc1cccc2c1CN(C1CCC(=O)NC1=O)C2=O` (stereo not shown) [Compound 220, 2-[[4-(1,6-dimethyl-7-oxo-pyrrolo[2,3-c]pyridin-4-yl)-2,6-dimethoxy-phenyl]methyl-methyl-amino]-N-[8-[[2-(2,6-dioxo-3-piperidyl)-1-oxo-isoindolin-4-yl]amino]octyl]acetamide], less than 100 nM; for `COc1cc(-c2cn(C)c(=O)c3cnccc23)cc(OC)c1CNCC(=O)NCCCCCCCCNc1cccc2c1C(=O)N(C1CCC(=O)NC1=O)C2=O` (stereo not shown) [Compound 221, 2-[[2,6-dimethoxy-4-(2-methyl-1-oxo-2,7-naphthyridin-4-yl)phenyl]methylamino]-N-[8-[[2-(2,6-dioxo-3-piperidyl)-1,3-dioxo-isoindolin-4-yl]amino]octyl]acetamide], less than 100 nM.
Consider `COc1cc(-c2cn(C)c(=O)c3cnccc23)cc(F)c1CN(C)CC(=O)NCCCCCCCCNc1cccc2c1C(=O)N(C1CCC(=O)NC1=O)C2=O` (stereo not shown) [Compound 222, N-[8-[[2-(2,6-dioxo-3-piperidyl)-1,3-dioxo-isoindolin-4-yl]amino]octyl]-2-[[2-fluoro-6-methoxy-4-(2-methyl-1-oxo-2,7-naphthyridin-4-yl)phenyl]methyl-methyl-amino]acetamide], for which the DC50 was less than 100 nM.
For `COc1cc(-c2cn(C)c(=O)c3cnccc23)cc(OC)c1COCC(=O)NCCCCCCCCNc1cccc2c1C(=O)N(C1CCC(=O)NC1=O)C2=O` (stereo not shown) [Compound 223, 2-[[2,6-dimethoxy-4-(2-methyl-1-oxo-2,7-naphthyridin-4-yl)phenyl]methoxy]-N-[8-[[2-(2,6-dioxo-3-piperidyl)-1,3-dioxo-isoindolin-4-yl]amino]octyl]acetamide] the value was less than 100 nM.
For `COc1cc(-c2cn(C)c(=O)c3cnccc23)cc(OC)c1C(C)N(C)CC(=O)NCCCCCCCCNc1cccc2c1C(=O)N(C1CCC(=O)NC1=O)C2=O` (stereo not shown) [Compound 224, 2-[1-[2,6-dimethoxy-4-(2-methyl-1-oxo-2,7-naphthyridin-4-yl)phenyl]ethyl-methyl-amino]-N-[8-[[2-(2,6-dioxo-3-piperidyl)-1,3-dioxo-isoindolin-4-yl]amino]octyl]acetamide] the value was less than 100 nM.
To `COc1cc(-c2cn(C)c(=O)c(C)n2)cc(OC)c1CN(C)CC(=O)NCCCCCCCCNc1cccc2c1C(=O)N(C1CCC(=O)NC1=O)C2=O` (stereo not shown) [Compound 225, 2-((4-(4,6-dimethyl-5-oxo-4,5-dihydropyrazin-2-yl)-2,6-dimethoxybenzyl)(methyl)amino)-N-(8-((2-(2,6-dioxopiperidin-3-yl)-1,3-dioxoisoindolin-4-yl)amino)octyl)acetamide] belongs less than 100 nM.

Values taken from patent US20210198256A1, “COMPOUNDS FOR THE DEGRADATION OF BRD9 OR MTH1” (C4 Therapeutics, Inc., priority 2018, published 2021).
